{
  "source": "patent US12104173B2",
  "about": "“Method for differentiation of human pluripotent stem cell lines in suspension culture” (AGENCY FOR SCIENCE, TECHNOLOGY AND RESEARCH, priority 2018, dated 2024)",
  "molecules": {"B1": {"name": "Activin A: dimeric protein complex comprising two beta-A subunits (protein, UniProt P08476 311-426, looked up)", "Inhibin beta A chain": "GLECDGKVNICCKKQFFVSFKDIGWNDWIIAPSGYHANYCEGECPSHIAGTSGSSLSFHSTVINHYRMRGHSPFANLKSCCVPTKLRPMSMLYYDDGQNIIKKDIQNMIVEECGCS", "modifications": "Inhibin beta A chain homodimer", "notes": "dimeric protein complex comprising two beta-A subunits"}},
  "key": {"[1]": {"test_system": "X13 induced pluripotent stem cells (iPSCs) on microcarriers", "conditions": "24 hours post treatment; 10 μM", "experimental": "(§1) (A) is a column graph showing two different concentrations of seven Wnt pathway activators (BIO, SB-216763, CHIR98014, Inhibitor VIII, Kenpaullone, DRF053 dihydrochloride and Wnt3a). which were selected from literature reviews and screened with CHIR99021 as a control for the disclosed hematopoietic differentiation protocol. The viability of the X13 induced pluripotent stem cells (iPSCs) on microcarriers were tabulated accordingly 24 hours post treatment of the various Wnt pathway modulators. […] (B) is a column graph showing the percentage of mesogerm induction."}, "[2]": {"test_system": "X13 induced pluripotent stem cells (iPSCs) on microcarriers", "assay": "screening of Wnt pathway activators: mesoderm induction (T-bra, KDR+PDGFRα−) by flow cytometry", "type": "cell-based, human", "conditions": "compared to other Wnt pathway modulators", "experimental": "as §1\nHuman induced pluripotent stem cell-microcarrier (hiPSC-MC) aggregates (1×10^6 cells/ml, or 1e6 cells/nil) were transferred to mesoderm induction medium (cytokines all from Stemcell Technologies) plus Stemline II Hematopoietic Stem Cell Expansion medium (SL2) in either 6-well ultra-low attachment plates (5 ml) under continuous agitation at 75 rpm or 125 ml spinner flasks (50 ml) under continuous agitation at 36 rpm. Daily medium changes as indicated: Day 0: SL2+30 ng/ml BMP4+50 ng/ml VEGF-165+40 ng/ml Activin A+12-15 μM CHIR-99021; Day 1: SL2+30 ng/ml BMP4+50 ng/ml VEGF-165+40 ng/ml Activin A; Day 2: SL2+20 ng/ml BMP4+30 ng/ml VEGF165+5 ng/ml Activin A+10 ng/ml bFGF+20 ng/ml SCF+0.4 ng/ml β-estradiol. Samples were collected on day 1 and day 3 for flow cytometry analysis of T-brachyury (T-Bra) and KDR/PDGFRα cells, respectively."}, "[3]": {"test_system": "hES-3-MC aggregates (agitation culture)", "assay": "DoE multifactorial mesoderm induction: % KDR+ cells by flow cytometry", "type": "cell-based, human", "conditions": "BMP4 10 to 50 ng/ml, Activin A 0-80 ng/ml, CHIR exposure 0 to 24 hours, 4 days post initiation of differentiation", "experimental": "(§2) Different doses (and/or duration of exposure) of cytokines and small-molecules with known roles in inducing mesoderm and hematopoietic differentiation were evaluated using the MODDE® software for differentiation of hES-3 MC aggregate cultures initially derived under agitation. The DoE was designed to investigate effects of BMP4 (10-50 ng/ml), Activin A (0 to 80 ng/ml), CHIR (0-15 μM at 0 to 48 hours after start of mesoderm induction). These variables generated 29 culture conditions (FIG. 2A), which were tested for their effects on percent of KDR+ cells (4 days post initiation of differentiation) and the following stage of hematopoietic precursors generation (2 weeks of culture in Blast growth medium (BGM)).\n(§3) Design of experiments (DoE) using a resolution IV Fractional Factorial Design was performed using the MODDE software (Sartorius Stedim Biotech, Germany) to evaluate initial BMP4, Activin A and CHIR-99021, doses and duration of exposure for their effects on the following response factors: induction of KDR+ cells 4 days post mesoderm induction or total hematopoietic precursor cells generated 2 weeks post differentiation.\nDesign of experiments (DoE) using a resolution IV Fractional Factorial Design was performed using the MODDE software (Sartorius Stedim Biotech, Germany) to evaluate initial BMP4, Activin A and CHIR-99021, doses and duration of exposure for their effects on the following response factors: induction of KDR+ cells 4 days post mesoderm induction or total hematopoietic precursors generated 2 weeks post differentiation. […] Computed model with R2 scores>0.5 indicate a model of significant fit, Q2 scores>0.1 indicate a significant model while Q2>0.5 indicate a good model for estimation of future prediction precision, model validity score of <0.25 indicate statistically significant model problems and reproducibility (the variation of the replicates compared to overall variability) should be greater than 0.5. […]"}, "[4]": {"test_system": "hES-3-MC aggregates (agitation culture)", "assay": "DoE: hematopoietic precursor generation, 14 days in Blast growth medium (BGM)", "type": "cell-based, human", "conditions": "BMP4 10 to 50 ng/ml, Activin A 0-80 ng/ml, CHIR exposure 0 to 24 hours, 2 weeks in BGM", "experimental": "as §2\nDesign of experiments (DoE) using a resolution IV Fractional Factorial Design was performed using the MODDE software (Sartorius Stedim Biotech, Germany) to evaluate initial BMP4, Activin A and CHIR-99021, doses and duration of exposure for their effects on the following response factors: induction of KDR+ cells 4 days post mesoderm induction or total hematopoietic precursors generated 2 weeks post differentiation. […] Computed model with R2 scores>0.5 indicate a model of significant fit, Q2 scores>0.1 indicate a significant model while Q2>0.5 indicate a good model for estimation of future prediction precision, model validity score of <0.25 indicate statistically significant model problems and reproducibility (the variation of the replicates compared to overall variability) should be greater than 0.5.\nHuman pluripotent stem cell-microcarrier (HPSC-MC) aggregates (derived from 7 day continuous agitation conditions), equivalent to 5×10^5 cells, were seeded and differentiated in 24-well ultra-low attachment plates with Stemline II medium using multi-factorial conditions as detailed in FIG. 2A and FIG. 6A, as well as in Table 3. […]\nFollowing 4 days of differentiation, single cells were derived from microcarrier aggregates by treatment with TrypLE. […] Fold-expansion was calculated as total number of cells derived after 2 weeks as compared to initial seeding of 1×10^5 cells."}, "[5]": {"test_system": "O-neg hiPSC line (D5) expanded in agitated microcarrier cultures", "assay": "DoE multifactorial analysis of KDR+ cells, O-neg hiPSC", "type": "cell-based, human", "conditions": "CHIR exposure for 24 hours, 4 days post differentiation", "text": "(B) Plot of KDR levels (%) for respective conditions tested (day 4 post differentiation). Conditions 27, 28 and 29 are triplicates of the same condition tested. […] Act=Activin A; CHI=CHIR-99021 for 24 hr, CH2=CHIR-99021 from 24-48 hr; BMP=BMP4. Computed P-values are indicated below the chart.\nThese findings were also confirmed using an O-neg hiPSC line (D5) expanded in agitated microcarrier cultures (FIG. 6). […] In summary, from the Design of experiment analysis, it was established that a BMP4 dose of 10 to 50 ng/ml, Activin A dose of 25 to 50 ng/ml and exposure of CHIR for 24 hours at a dose of 6 to 12 μM would be efficient for the generation of KDR+ cells.\nas §3, with “precursors” for “precursor cells”, “differentiation. […]” for “differentiation.”"}},
  "data": [
    {"molecule": "Nc1nc(NCCNc2ncc(-n3ccnc3)c(-c3ccc(Cl)cc3Cl)n2)ccc1[N+](=O)[O-]", "note": "[CHIR98014]", "values": [
      {"measurement": "viability of X13 iPSCs on microcarriers", "setting": "[1]", "result": "significantly reduced viability"},
      {"measurement": "T-bra expression", "setting": "[2]; 1 μM", "result": "higher T-bra expression"}
    ]},
    {"molecule": "Cn1cc(C2=C(c3ccc(Cl)cc3Cl)C(=O)NC2=O)c2ccccc21", "note": "[SB-216763]", "values": [
      {"measurement": "T-bra expression", "setting": "[2]; 5 μM", "result": "higher T-bra expression"}
    ]},
    {"molecule": "B1", "values": [
      {"measurement": "effect of factor on percent of KDR+ cells (DoE)", "setting": "[3]", "result": "did not significantly alter"},
      {"measurement": "effect of factor on hematopoietic precursor generation (DoE)", "setting": "[4]", "result": "did not significantly alter"},
      {"measurement": "effect of factor on KDR+ cells (DoE)", "setting": "[5]", "result": "significant factors for increased KDR+ cells"}
    ]}
  ]
}
